Legend:
Assay type in all cases: in vivo
mice [1] = experiment: inhalation anesthesia test in mice (10 min exposure in a rotating drum; pinch, corneal and righting reflexes); conditions: for potency as general anesthetics: administered in inhalation-anesthetic-susceptible organisms, in words; for AC50 (minimum concentration required to anesthetize 50% of the mice): inhalation, 10 minutes, rotating drum, at least four graded doses
Procedure: (§1) Mice were exposed to the anesthetic for a period of 10 minutes in a rotating drum. Observations were then made of the pinch reflex, the corneal reflex and the return of the righting reflex. At least four graded doses were employed to determine the minimum concentration required to anesthetize 50% of the mice used (AC50) and the minimum concentration required to kill 50% of the mice (LC50). The anesthetic index (AI) was then calculated from these minimum concentrations.

[2] = as above; conditions: mouse, in vivo, inhaled or intranasal; calculated from LC50 and AC50 in mice; read-out: AI (anesthetic index, LC50/AC50)
Procedure: as §1

mice [3] = experiment: lethality in mice on inhalation (LC50); conditions: 10 minutes, rotating drum, when two figures are given, the actual value lies between them
Procedure: as §1

Structure (SMILES)	potency as general anesthetics (mice [1])	AC50 (minimum concentration required to anesthetize 50% of the mice) (mice [1])	selectivity ratio at 10 min [2]	LC50 (minimum concentration required to kill 50% of the mice) (mice [3])
CC1(F)CC1(F)Br (centres unmarked) [Example 3, 1-bromo-1,2-difluoro-2-methylcyclopropane]	high potency	0.5 % volume	10	5 % volume
CC1CC1(F)Br (centres unmarked) [Example 4, 1-bromo-1-fluoro-2-methylcyclopropane]	high potency	< 2 % volume	> 2	4-6 % volume

From US3931344A, “Bromofluorocyclopropanes” (priority 1974, dated 1976)
